Experiment [1] deals with Metabotropic glutamate receptor 4 (Homo sapiens) (UniProt Q14833). Kind of experiment: Antagonist activity at Gi-coupled mGluR4 (unknown origin) expressed in CHO cells assessed as decrease in glutamate-induced inhibition of forskolin-stimulated cAMP accumulation after 1 hr by glosensor based luciferase reporter gene assay relative to control. It counts as functional, cell-based. Particulars: concentration not given here. More on the design: concentration or dose not given beside the values. (In general: cAMP levels reflect the balance of adenylyl cyclase and phosphodiesterase activity.)

Experiment [2] has as its target Metabotropic glutamate receptor 5 (Homo sapiens, UniProt P41594). In words: Displacement of MPEP from mGluR5 (unknown origin) after 3 hrs by liquid scintillation counting method.
The target of experiment [3] is Glutamate [NMDA] receptor. Kind of experiment: Displacement of [3H]MK-801 from NMDA receptor (unknown origin) after 3 hrs by liquid scintillation counting method. It counts as protein-complex assay, Homo sapiens. Background: In a radioligand displacement assay an active substance lowers the binding of a labelled ligand.
In experiment [4] the target is Metabotropic glutamate receptor 2 (Homo sapiens) (UniProt Q14416). Kind of experiment: Antagonist activity at Gi-coupled mGluR2 (unknown origin) expressed in CHO cells assessed as decrease in glutamate-induced inhibition of forskolin-stimulated cAMP accumulation after 1 hr by glosensor based luciferase reporter gene assay relative to control. It counts as functional, cell-based. More on the design: concentration or dose not given beside the values. The note with it: concentration not given here.

For the next experiment, the species on record is Homo sapiens. In words: Displacement of muscimol from GABA-A receptor (unknown origin) after 90 mins by liquid scintillation counting method. More on the design: concentration or dose not given beside the values.

The structures appear in SMILES notation. A value given as a limit tells only on which side of the number the result lay.

Metabotropic glutamate receptor 5, sequence (P41594 whole entry): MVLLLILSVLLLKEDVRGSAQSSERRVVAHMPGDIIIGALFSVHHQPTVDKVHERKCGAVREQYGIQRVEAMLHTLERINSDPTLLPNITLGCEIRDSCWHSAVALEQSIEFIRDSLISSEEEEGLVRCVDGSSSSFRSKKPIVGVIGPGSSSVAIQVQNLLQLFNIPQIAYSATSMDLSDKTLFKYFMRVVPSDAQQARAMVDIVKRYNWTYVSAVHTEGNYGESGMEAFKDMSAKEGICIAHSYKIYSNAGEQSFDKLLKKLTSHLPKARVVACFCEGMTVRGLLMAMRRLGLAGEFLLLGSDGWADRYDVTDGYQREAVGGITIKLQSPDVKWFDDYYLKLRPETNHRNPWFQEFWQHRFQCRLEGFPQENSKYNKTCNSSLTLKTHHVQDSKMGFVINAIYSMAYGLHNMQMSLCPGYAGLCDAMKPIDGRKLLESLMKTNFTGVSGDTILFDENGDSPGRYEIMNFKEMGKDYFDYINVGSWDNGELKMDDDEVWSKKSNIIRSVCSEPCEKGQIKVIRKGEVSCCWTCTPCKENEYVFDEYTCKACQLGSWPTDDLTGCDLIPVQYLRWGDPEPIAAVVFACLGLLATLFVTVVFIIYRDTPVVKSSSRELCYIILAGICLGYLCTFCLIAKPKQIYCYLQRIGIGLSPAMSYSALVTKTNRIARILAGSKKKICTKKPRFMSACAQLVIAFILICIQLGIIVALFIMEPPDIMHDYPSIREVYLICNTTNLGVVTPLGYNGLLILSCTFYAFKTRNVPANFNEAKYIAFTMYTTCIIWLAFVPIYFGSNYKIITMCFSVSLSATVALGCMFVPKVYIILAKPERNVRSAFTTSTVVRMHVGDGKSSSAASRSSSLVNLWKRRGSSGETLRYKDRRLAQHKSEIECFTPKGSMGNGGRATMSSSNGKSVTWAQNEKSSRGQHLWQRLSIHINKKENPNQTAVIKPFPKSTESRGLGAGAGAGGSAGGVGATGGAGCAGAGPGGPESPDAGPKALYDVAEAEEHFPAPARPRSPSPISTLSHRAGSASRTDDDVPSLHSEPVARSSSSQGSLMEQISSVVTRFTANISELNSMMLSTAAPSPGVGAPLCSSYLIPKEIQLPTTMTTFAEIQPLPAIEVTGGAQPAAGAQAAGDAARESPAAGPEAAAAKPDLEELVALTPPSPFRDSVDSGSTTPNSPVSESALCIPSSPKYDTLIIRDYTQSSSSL
Metabotropic glutamate receptor 4 (Homo sapiens), sequence (Q14833 whole entry): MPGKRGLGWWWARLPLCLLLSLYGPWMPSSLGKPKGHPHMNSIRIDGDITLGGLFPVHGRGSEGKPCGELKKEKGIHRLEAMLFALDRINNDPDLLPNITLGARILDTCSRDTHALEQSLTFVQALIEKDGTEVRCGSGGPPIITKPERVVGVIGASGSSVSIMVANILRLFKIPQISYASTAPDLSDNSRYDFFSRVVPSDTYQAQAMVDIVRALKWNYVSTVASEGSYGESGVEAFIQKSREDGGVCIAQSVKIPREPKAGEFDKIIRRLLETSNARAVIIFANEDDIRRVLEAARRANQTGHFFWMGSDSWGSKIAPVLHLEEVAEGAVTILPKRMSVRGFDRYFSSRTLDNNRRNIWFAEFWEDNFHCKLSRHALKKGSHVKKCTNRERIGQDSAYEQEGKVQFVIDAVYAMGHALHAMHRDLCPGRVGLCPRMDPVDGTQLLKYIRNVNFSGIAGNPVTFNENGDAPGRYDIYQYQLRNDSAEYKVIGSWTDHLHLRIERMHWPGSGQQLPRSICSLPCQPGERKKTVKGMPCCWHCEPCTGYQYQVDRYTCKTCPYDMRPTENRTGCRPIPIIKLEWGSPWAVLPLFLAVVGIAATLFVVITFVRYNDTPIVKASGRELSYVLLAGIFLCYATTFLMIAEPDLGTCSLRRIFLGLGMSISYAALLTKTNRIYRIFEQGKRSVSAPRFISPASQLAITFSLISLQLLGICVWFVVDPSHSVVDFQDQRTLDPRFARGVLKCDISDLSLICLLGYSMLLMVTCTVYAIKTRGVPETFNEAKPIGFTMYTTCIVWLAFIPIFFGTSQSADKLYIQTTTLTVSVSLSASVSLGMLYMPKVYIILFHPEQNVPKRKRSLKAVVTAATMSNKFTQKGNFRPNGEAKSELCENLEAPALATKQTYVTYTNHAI
Metabotropic glutamate receptor 2 (Homo sapiens), sequence (Q14416 19-872 limits assumed): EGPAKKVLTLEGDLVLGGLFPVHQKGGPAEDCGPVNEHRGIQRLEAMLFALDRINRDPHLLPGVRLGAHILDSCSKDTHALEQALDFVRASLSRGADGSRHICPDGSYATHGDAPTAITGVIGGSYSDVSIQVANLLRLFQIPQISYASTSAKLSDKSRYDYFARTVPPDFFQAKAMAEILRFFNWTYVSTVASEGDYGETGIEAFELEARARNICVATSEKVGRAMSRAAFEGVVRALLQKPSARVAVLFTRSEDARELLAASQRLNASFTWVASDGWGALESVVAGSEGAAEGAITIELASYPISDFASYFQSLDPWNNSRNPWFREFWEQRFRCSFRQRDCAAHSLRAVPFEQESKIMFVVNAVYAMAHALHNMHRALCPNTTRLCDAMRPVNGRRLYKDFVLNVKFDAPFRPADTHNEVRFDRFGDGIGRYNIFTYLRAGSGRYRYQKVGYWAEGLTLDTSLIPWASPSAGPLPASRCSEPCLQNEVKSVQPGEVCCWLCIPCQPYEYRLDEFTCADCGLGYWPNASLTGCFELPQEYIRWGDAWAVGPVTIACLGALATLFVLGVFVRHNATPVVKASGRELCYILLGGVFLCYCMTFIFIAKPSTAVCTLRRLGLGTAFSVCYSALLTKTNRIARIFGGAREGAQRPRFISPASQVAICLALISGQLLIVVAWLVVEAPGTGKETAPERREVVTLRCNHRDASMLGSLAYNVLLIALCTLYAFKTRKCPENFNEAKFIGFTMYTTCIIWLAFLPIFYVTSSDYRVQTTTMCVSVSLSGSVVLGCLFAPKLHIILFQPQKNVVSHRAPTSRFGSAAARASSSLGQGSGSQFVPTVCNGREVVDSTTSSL

In the case of `COc1ccc(-n2nc(C)c3conc3c2=O)cc1`, the inhibition (as a rule, the relative decrease from the control value, in per cent) in experiment [1] is 9%. For the same compound, the Ki in experiment [2] and in experiment [3] was above 10 µM throughout.
For the compound `Cc1nn(-c2cccc([N+](=O)[O-])c2)c(=O)c2nocc12`, the inhibition was -10% in experiment [1] and 48% in experiment [4]. Besides, the Ki in experiment [2] and in experiment [3] was above 10 µM throughout.
With `CN1CC(=O)N=C1NC(=O)Nc1cccc(Cl)c1` [FENOBAM ANHYDROUS], the inhibition constant Ki (commonly the equilibrium dissociation constant of an inhibitor or competing ligand from its target) in experiment [2] was determined as 0.033 µM.
Turning to `Cc1nn(-c2ccc(F)cc2F)c(=O)c2nocc12`, the inhibition was -10% in the experiment filed under Homo sapiens and -7% in experiment [1]. For the same compound, the Ki in experiment [2] and in experiment [3] was above 10 µM in each case.
For the compound `Cc1nn(-c2ccc([N+](=O)[O-])cc2)c(=O)c2nocc12`, the figures for the inhibition (in the experiment listed under Homo sapiens; in experiment [1]; in experiment [4]) were -4.7%, -3% and 5%, respectively. Moreover, the Ki in experiment [2] and in experiment [3] was above 10 µM each time.
As to `Cc1nn(-c2cc(C(F)(F)F)cc(C(F)(F)F)c2)c(=O)c2nocc12`, the inhibition was -7.2% in the experiment listed under Homo sapiens, 11% in experiment [1] and 0% in experiment [4]. Further, the Ki in experiment [3] was above 10 µM.
In the case of `Cc1nn(-c2cc(Cl)cc(Cl)c2)c(=O)c2nocc12`, the values for the inhibition (in the experiment listed under Homo sapiens; in experiment [1]; in experiment [4]) were -7.8%, -6% and 11%, respectively. For the same compound, the figures for the Ki in experiment [2] and in experiment [3] were 3.08 µM and above 10 µM, respectively.
Turning to `Cc1nn(-c2ccc(F)cc2)c(=O)c2nocc12`, the figures for the inhibition (in the experiment listed under Homo sapiens; in experiment [1]; in experiment [4]) were -6%, 3% and 23%, respectively. For the same compound, the inhibition constant Ki in experiment [2] and in experiment [3] was above 10 µM throughout.
Regarding `Cc1ccc(-n2nc(C)c3conc3c2=O)cc1`, the inhibition in experiment [1] was -9%. Also, the Ki in experiment [2] is 1.88 µM; in experiment [3] it was above 10 µM.
Take `Cc1nn(-c2ccccc2)c(=O)c2nocc12`: the inhibition was -6% in the experiment filed under Homo sapiens and -5% in experiment [1]. In addition, the Ki in experiment [2] and in experiment [3] was above 10 µM in each case.

For the origin of these results see ChEMBL document CHEMBL4152351, “Isoxazolo[3,4-d]pyridazinones positively modulate the metabotropic glutamate subtypes 2 and 4” (Bioorg Med Chem, 2018).
